Experimental data published in patent publication US10004701B2, “Methods and compositions for treating infection” (UNIVERSITY OF ROCHESTER, priority 2012, dated 2018).
Where a name gives a salt, the structure may show the parent alone. Read-outs that look alike come from different tables or passages of the source.

Legend:
Assay in all cases: AK assay 384-well format, Prestwick library screening
[1] = test system: E. faecium; assay type: cell-based, Enterococcus faecium; conditions: 50 μM final drug concentration; for fold induction at 50 µM: Enterococcus faecium, 3 h
[2] = test system: S. aureus strain USA300-0114; assay type: cell-based, Staphylococcus aureus; conditions: 50 μM final drug concentration; for fold induction at 50 µM: Staphylococcus aureus, USA300, 3 h
[3] = test system: K. pneumoniae; assay type: cell-based, Klebsiella pneumoniae; conditions: 50 μM final drug concentration; for fold induction at 50 µM: Klebsiella pneumoniae, 3 h
[4] = test system: A. baumannii strain 98-37-09; assay type: cell-based, Acinetobacter baumannii; conditions: 50 μM final drug concentration; for fold induction at 50 µM: Acinetobacter baumannii, 983709, 3 h
[5] = test system: P. aeruginosa; assay type: cell-based, Pseudomonas aeruginosa; conditions: 50 μM final drug concentration; for fold induction at 50 µM: Pseudomonas aeruginosa, 3 h
[6] = test system: E. cloacae; assay type: cell-based, Enterobacter cloacae; conditions: 50 μM final drug concentration; for fold induction at 50 µM: Enterobacter cloacae, 3 h
[7] = test system: E. coli; assay type: cell-based, Escherichia coli; conditions: 50 μM final drug concentration; for fold induction at 50 µM: Escherichia coli, 3 h
[8] = planktonic E. faecium, cutoff for positive-scoring molecules 3-fold increase, read-out: AK-based Prestwick Library Screening Results, E. faecium (increase in extracellular AK activity)
[9] = planktonic S. aureus, cutoff for positive-scoring molecules 3-fold increase, read-out: AK-based Prestwick Library Screening Results, S. aureus (increase in extracellular AK activity)
[10] = planktonic K. pneumoniae, cutoff for positive-scoring molecules 3-fold increase, read-out: AK-based Prestwick Library Screening Results, K. pneumoniae (increase in extracellular AK activity)
[11] = planktonic A. baumannii, cutoff for positive-scoring molecules 3-fold increase, read-out: AK-based Prestwick Library Screening Results, A. baumannii (increase in extracellular AK activity)
[12] = planktonic P. aeruginosa, cutoff for positive-scoring molecules 3-fold increase, read-out: AK-based Prestwick Library Screening Results, P. aeruginosa (increase in extracellular AK activity)
[13] = planktonic E. cloacae, cutoff for positive-scoring molecules 3-fold increase, read-out: AK-based Prestwick Library Screening Results, E. cloacae (increase in extracellular AK activity)
[14] = planktonic E. coli, cutoff for positive-scoring molecules 3-fold increase, read-out: AK-based Prestwick Library Screening Results, E. coli (increase in extracellular AK activity)
[15] = planktonic E. faecium, […], read-out: AK-based Prestwick Library Screening Results, E. faecium (increase in extracellular AK activity)
[16] = planktonic S. aureus, […], read-out: AK-based Prestwick Library Screening Results, S. aureus (increase in extracellular AK activity)
[17] = planktonic K. pneumoniae, […], read-out: AK-based Prestwick Library Screening Results, K. pneumoniae (increase in extracellular AK activity)
[18] = planktonic A. baumannii, […], read-out: AK-based Prestwick Library Screening Results, A. baumannii (increase in extracellular AK activity)
[19] = planktonic P. aeruginosa, […], read-out: AK-based Prestwick Library Screening Results, P. aeruginosa (increase in extracellular AK activity)
[20] = planktonic E. cloacae, […], read-out: AK-based Prestwick Library Screening Results, E. cloacae (increase in extracellular AK activity)
[21] = planktonic E. coli, […], read-out: AK-based Prestwick Library Screening Results, E. coli (increase in extracellular AK activity)
[22] = planktonic E. faecium, positive cutoff 3-fold increase, read-out: AK-based Prestwick library screening result, E. faecium (fold increase in extracellular AK activity)
[23] = planktonic S. aureus, positive cutoff 3-fold increase, read-out: AK-based Prestwick library screening result, S. aureus (fold increase in extracellular AK activity)
[24] = planktonic K. pneumoniae, positive cutoff 3-fold increase, read-out: AK-based Prestwick library screening result, K. pneumoniae (fold increase in extracellular AK activity)
[25] = planktonic A. baumannii, positive cutoff 3-fold increase, read-out: AK-based Prestwick library screening result, A. baumannii (fold increase in extracellular AK activity)
[26] = planktonic P. aeruginosa, positive cutoff 3-fold increase, read-out: AK-based Prestwick library screening result, P. aeruginosa (fold increase in extracellular AK activity)
[27] = planktonic E. cloacae, positive cutoff 3-fold increase, read-out: AK-based Prestwick library screening result, E. cloacae (fold increase in extracellular AK activity)
[28] = planktonic E. coli, positive cutoff 3-fold increase, read-out: AK-based Prestwick library screening result, E. coli (fold increase in extracellular AK activity)
[29] = planktonic, cutoff for positive-scoring molecules 3-fold increase, read-out: AK-based Prestwick Library Screening Results, E. faecium (fold increase in extracellular AK activity)
[30] = planktonic, cutoff for positive-scoring molecules 3-fold increase, read-out: AK-based Prestwick Library Screening Results, S. aureus (fold increase in extracellular AK activity)
[31] = planktonic, cutoff for positive-scoring molecules 3-fold increase, read-out: AK-based Prestwick Library Screening Results, K. pneumoniae (fold increase in extracellular AK activity)
[32] = planktonic, cutoff for positive-scoring molecules 3-fold increase, read-out: AK-based Prestwick Library Screening Results, A. baumannii (fold increase in extracellular AK activity)
[33] = planktonic, cutoff for positive-scoring molecules 3-fold increase, read-out: AK-based Prestwick Library Screening Results, P. aeruginosa (fold increase in extracellular AK activity)
[34] = planktonic, cutoff for positive-scoring molecules 3-fold increase, read-out: AK-based Prestwick Library Screening Results, E. cloacae (fold increase in extracellular AK activity)
[35] = planktonic, cutoff for positive-scoring molecules 3-fold increase, read-out: AK-based Prestwick Library Screening Results, E. coli (fold increase in extracellular AK activity)

CCOC(=O)n1ccn(C)c1=S [Carbimazole]
fold induction at 50 µM [1, 8]: 0.9 | fold induction at 50 µM [2, 9]: 0.6 | fold induction at 50 µM [3, 10]: 0.7 | fold induction at 50 µM [4, 11]: 0.8 | fold induction at 50 µM [5, 12]: 0.7 | fold induction at 50 µM [6, 13]: 1.2 | fold induction at 50 µM [7, 14]: 0.8

NCCC(=O)NCCc1c[nH]cn1 [Carcinine]
fold induction at 50 µM [1, 15]: 0.9 | fold induction at 50 µM [2, 16]: 0.7 | fold induction at 50 µM [3, 17]: 0.6 | fold induction at 50 µM [4, 18]: 0.8 | fold induction at 50 µM [5, 19]: 0.8 | fold induction at 50 µM [6, 20]: 0.8 | fold induction at 50 µM [7, 21]: 0.8

CCCC(C)(COC(N)=O)COC(=O)NC(C)C (stereo not drawn) [Carisoprodol]
fold induction at 50 µM [1, 15]: 0.9 | fold induction at 50 µM [2, 16]: 0.7 | fold induction at 50 µM [3, 17]: 0.6 | fold induction at 50 µM [4, 18]: 0.8 | fold induction at 50 µM [5, 19]: 0.9 | fold induction at 50 µM [6, 20]: 0.8 | fold induction at 50 µM [7, 21]: 0.9

CC(C)(C)NCC(O)COc1cccc2c1CCC(=O)N2 (stereo not drawn) [Carteolol hydrochloride]
fold induction at 50 µM [1, 8]: 1 | fold induction at 50 µM [2, 9]: 1.1 | fold induction at 50 µM [3, 10]: 0.8 | fold induction at 50 µM [4, 11]: 1 | fold induction at 50 µM [5, 12]: 1.1 | fold induction at 50 µM [6, 13]: 1.1 | fold induction at 50 µM [7, 14]: 1.2

CCC1=C[C@@H]2CN3CCc4c([nH]c5ccccc45)[C@@](C(=O)OC)(C2)[C@@H]13 [Catharanthine]
AK-based Prestwick Library Screening Results, E. faecium (increase in extracellular AK activity) ([1]; 384-well format, […]): 1.0 | AK-based Prestwick Library Screening Results, S. aureus (increase in extracellular AK activity) ([2]; 384-well format, […]): 0.8 | AK-based Prestwick Library Screening Results, K. pneumoniae (increase in extracellular AK activity) ([3]; 384-well format, […]): 0.8 | AK-based Prestwick Library Screening Results, A. baumannii (increase in extracellular AK activity) ([4]; 384-well format, […]): 0.8 | AK-based Prestwick Library Screening Results, P. aeruginosa (increase in extracellular AK activity) ([5]; 384-well format, […]): 0.7 | AK-based Prestwick Library Screening Results, E. cloacae (increase in extracellular AK activity) ([6]; 384-well format, […]): 1.0 | AK-based Prestwick Library Screening Results, E. coli (increase in extracellular AK activity) ([7]; 384-well format, […]): 1.0

N[C@@H](C(=O)N[C@@H]1C(=O)N2C(C(=O)O)=C(Cl)CS[C@H]12)c1ccccc1 [Cefaclor]
fold induction at 50 µM [1, 8]: 0.9 | fold induction at 50 µM [2, 9]: 0.5 | fold induction at 50 µM [3, 10]: 2.5 | fold induction at 50 µM [4, 11]: 1.5 | fold induction at 50 µM [5, 12]: 0.5 | fold induction at 50 µM [6, 13]: 0.7 | fold induction at 50 µM [7, 14]: 10.7

CC1=C(C(=O)O)N2C(=O)[C@@H](NC(=O)[C@H](N)c3ccc(O)cc3)[C@H]2SC1 [Cefadroxil]
fold induction at 50 µM [1, 8]: 0.8 | fold induction at 50 µM [2, 9]: 0.5 | fold induction at 50 µM [3, 10]: 0.8 | fold induction at 50 µM [4, 11]: 0.9 | fold induction at 50 µM [5, 12]: 0.8 | fold induction at 50 µM [6, 13]: 1.2 | fold induction at 50 µM [7, 14]: 0.9

NC(=O)c1cc[n+](CC2=C(C(=O)[O-])N3C(=O)[C@@H](NC(=O)Cc4cccs4)[C@H]3SC2)cc1 [Cefalonium]
fold induction at 50 µM [1, 22]: 0.9 | fold induction at 50 µM [2, 23]: 1.6 | fold induction at 50 µM [3, 24]: 3.8 | fold induction at 50 µM [4, 25]: 1.5 | fold induction at 50 µM [5, 26]: 0.8 | fold induction at 50 µM [6, 27]: 1.4 | fold induction at 50 µM [7, 28]: 16.6

Cn1nnnc1SCC1=C(C(=O)O)N2C(=O)[C@@H](NC(=O)[C@H](O)c3ccccc3)[C@H]2SC1 [Cefamandole sodium salt]
fold induction at 50 µM [1, 29]: 0.9 | fold induction at 50 µM [2, 30]: 1.3 | fold induction at 50 µM [3, 31]: 2.3 | fold induction at 50 µM [4, 32]: 0.6 | fold induction at 50 µM [5, 33]: 0.7 | fold induction at 50 µM [6, 34]: 0.9 | fold induction at 50 µM [7, 35]: 10.5

Cc1nnc(SCC2=C(C(=O)O)N3C(=O)[C@@H](NC(=O)Cn4cnnn4)[C@H]3SC2)s1 [Cefazolin sodium salt]
fold induction at 50 µM [1, 29]: 0.9 | fold induction at 50 µM [2, 30]: 3.1 | fold induction at 50 µM [3, 31]: 3.6 | fold induction at 50 µM [4, 32]: 0.5 | fold induction at 50 µM [5, 33]: 0.7 | fold induction at 50 µM [6, 34]: 0.9 | fold induction at 50 µM [7, 35]: 16.5

CO/N=C(\C(=O)N[C@@H]1C(=O)N2C(C(=O)O)=C(C[N+]3(C)CCCC3)CS[C@H]12)c1csc(N)n1 [Cefepime hydrochloride]
fold induction at 50 µM [1, 22]: 1 | fold induction at 50 µM [2, 23]: 3.1 | fold induction at 50 µM [3, 24]: 4.9 | fold induction at 50 µM [4, 25]: 3.4 | fold induction at 50 µM [5, 26]: 15.6 | fold induction at 50 µM [6, 27]: 1.9 | fold induction at 50 µM [7, 28]: 19.3

C=CC1=C(C(=O)O)N2C(=O)[C@@H](NC(=O)/C(=N\OCC(=O)O)c3csc(N)n3)[C@H]2SC1 [Cefixime]
fold induction at 50 µM ([1]; planktonic, cutoff for positive 3-fold increase, read-out: AK-based Prestwick Library Screening Results, E. faecium (fold increase in extracellular AK activity)): 1.1 | fold induction at 50 µM ([2]; planktonic, cutoff for positive 3-fold increase, read-out: AK-based Prestwick Library Screening Results, S. aureus (fold increase in extracellular AK activity)): 1.2 | fold induction at 50 µM ([3]; planktonic, cutoff for positive 3-fold increase, read-out: AK-based Prestwick Library Screening Results, K. pneumoniae (fold increase in extracellular AK activity)): 4.6 | fold induction at 50 µM ([4]; planktonic, cutoff for positive 3-fold increase, read-out: AK-based Prestwick Library Screening Results, A. baumannii (fold increase in extracellular AK activity)): 1.8 | fold induction at 50 µM ([5]; planktonic, cutoff for positive 3-fold increase, read-out: AK-based Prestwick Library Screening Results, P. aeruginosa (fold increase in extracellular AK activity)): 11.7 | fold induction at 50 µM ([6]; planktonic, cutoff for positive 3-fold increase, read-out: AK-based Prestwick Library Screening Results, E. cloacae (fold increase in extracellular AK activity)): 21.9 | fold induction at 50 µM ([7]; planktonic, cutoff for positive 3-fold increase, read-out: AK-based Prestwick Library Screening Results, E. coli (fold increase in extracellular AK activity)): 18.6
